The record followed here is PMC11335300, “The novel function of an orphan pheromone receptor reveals the sensory specializations of two potential distinct types of sex pheromones in noctuid moth” (Cellular and Molecular Life Sciences: CMLS, 2024).

The target of the assay is T1, HarmOR11/Orco (Helicoverpa armigera, UniProt A0A7D5JUD6).
T1 construct: full-length HarmOR11 and HarmOrco cloned from antennal cDNA into pT7Ts; cRNAs co-injected in Xenopus laevis oocytes; heteromeric channel, exact stoichiometry unknown (2:2 only modelled); with Odorant receptor coreceptor
T1 sequence (A0A7D5JUD6 1-431): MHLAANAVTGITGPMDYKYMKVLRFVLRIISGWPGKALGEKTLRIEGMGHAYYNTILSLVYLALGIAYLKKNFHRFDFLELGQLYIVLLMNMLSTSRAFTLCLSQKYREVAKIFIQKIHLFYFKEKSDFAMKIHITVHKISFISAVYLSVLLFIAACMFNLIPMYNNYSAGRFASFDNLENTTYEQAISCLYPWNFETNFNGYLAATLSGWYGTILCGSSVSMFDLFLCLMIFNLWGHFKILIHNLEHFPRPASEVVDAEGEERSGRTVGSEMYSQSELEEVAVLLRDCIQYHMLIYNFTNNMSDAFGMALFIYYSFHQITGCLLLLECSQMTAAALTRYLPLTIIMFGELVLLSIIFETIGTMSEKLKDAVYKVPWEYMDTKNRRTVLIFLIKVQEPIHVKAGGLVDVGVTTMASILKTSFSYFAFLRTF
T1 sequence (E5KJL4 1-473 partner): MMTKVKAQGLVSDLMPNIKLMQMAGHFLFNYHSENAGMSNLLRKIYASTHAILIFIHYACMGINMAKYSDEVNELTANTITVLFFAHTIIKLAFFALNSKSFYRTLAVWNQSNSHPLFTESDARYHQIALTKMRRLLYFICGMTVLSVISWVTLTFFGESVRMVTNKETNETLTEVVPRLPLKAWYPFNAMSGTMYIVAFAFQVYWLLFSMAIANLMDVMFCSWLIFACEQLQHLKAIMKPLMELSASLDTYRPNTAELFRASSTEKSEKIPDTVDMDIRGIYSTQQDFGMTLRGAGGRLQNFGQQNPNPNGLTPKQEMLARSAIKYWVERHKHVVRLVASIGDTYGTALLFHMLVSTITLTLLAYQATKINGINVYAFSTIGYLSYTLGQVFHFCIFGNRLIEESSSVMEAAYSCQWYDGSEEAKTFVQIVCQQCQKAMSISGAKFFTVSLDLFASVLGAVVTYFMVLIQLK
The assay can be described thus: two-electrode voltage clamp of Xenopus oocytes co-expressing HarmOR11/Orco. Format: cell-based. To be noted: agonist; holding potential -80 mV; Ringer's buffer pH 7.6; from DMSO stock; unit printed as mol (concentration meant).

`CC/C=C\C/C=C\C/C=C\CCCCCCCCCCC` [3Z,6Z,9Z-21:H, 3Z,6Z,9Z-heneicosatriene]: the EC50 was 1.637e-05 mol.
